We go through four molecules from US20210386367A1, “DEVICES AND SYSTEMS FOR GASTROINTESTINAL MICROBIOME DETECTION AND MANIPULATION” (Progenity, Inc., priority 2018, published 2021).

One may read the MIC as the lowest concentration found to suppress growth.

Data set [1] relates to Streptococcus spp. spontaneous mutants. To be noted: S. pneumoniae ATCC 49619; CLSI QC range shown in parentheses; cited from earlier work.
Data set [2] relates to Bacteroides spp. spontaneous mutants. Kind of data set: Broth microdilution MIC of spontaneous mutants. In kind it is cell-based. On the procedure:
(§1) Select isolates were subcultured onto agar containing drug at the selection concentration, were identified by MALDI, and were frozen for broth microdilution MIC testing as described below.
(§2) To determine whether colonies growing on drug selection plates had elevated MIC values to the selecting antibiotic, susceptibility testing by broth microdilution was conducted on isolated mutants following methodology recommended by CLSI (1), (2), and (3) “Performance Standards for Antimicrobial Susceptibility Testing; Twenty-Eighth Informational Supplement.,” CLSI document M100-S28, 2018.
(§3) All wells in columns 2 through 12 of a standard 96-well microdilution plate (Costar 3795) were filled with 150 μL of the appropriate diluent. Then, 300 μL of the test agents were added to the wells of column 1 of the plates at […] the highest final concentration to be tested. Serial two-fold dilutions were made across the rows through column 11 using the Biomek 2000. The wells of column 12 contained no drug and served as the growth control wells. This plate served as the “mother plate” from which selected MIC assay plates or “daughter plates” were made.
Daughter plates for anaerobic organisms were transferred to a Bactron II anaerobic chamber (Sheldon Manufacturing Inc., Cornelius, Oreg.) to reduce for 1 hour prior to inoculation. The inoculum for each organism was prepared in the anaerobic chamber and dispensed into sterile disposable reservoirs. Inoculation was completed using a multichannel pipette to transfer 10 μL of the inoculum into each well of the daughter plate. This yielded a final cell concentration in the daughter plates of approximately 1×10^6 CFU/mL.

Data set [3] has as its system Streptococcus spp. spontaneous mutants. In words: organism not typed. Format: cell-based. The protocol: as §1, §2, §3
2 μL of drug solution from each well of a mother plate was added to each corresponding well of the daughter plate in a single step. A standardized inoculum of each aerobic test organism was prepared per CLSI methods to equal a 0.5 McFarland standard, followed by a dilution of 1:20 in MHB II. The plates were then inoculated with 10 μL of the diluted inoculum using the Biomek 2000 from low to high drug concentration, resulting in a final concentration of approximately 5×10^5 CFU/mL. An un-inoculated plate was incubated for the purpose of assessing solubility of the drug in the test media.
The plates for the aerobic tests were stacked 3-4 high, covered with a sterile lid on the top plate, and incubated aerobically at 35° C. for 18-20 hr. The MIC was recorded as the lowest concentration of drug that inhibited visible growth of the organism.

The subject of another data set is S. pyogenes ATCC 49399. In words: Broth microdilution MIC (time-kill study). To be noted: Streptococcus pyogenes, ATCC49399; S. pyogenes ATCC 49399; read-out: MIC. In kind it is cell-based, Streptococcus pyogenes.
The next data set relates to S. pneumoniae ATCC 49619. Kind of data set: Broth microdilution MIC (time-kill study). Format: cell-based, Streptococcus pneumoniae. Particulars: Streptococcus pneumoniae, ATCC49619; S. pneumoniae ATCC 49619; read-out: MIC. (In broth dilution the organism is exposed to a series of concentrations in liquid medium.)
The test system of data set [4] is B. fragilis ATCC 25285. Kind of data set: Broth microdilution MIC (time-kill study). Format: cell-based, Bacteroides fragilis. Particulars: Bacteroides fragilis, ATCC25285; B. fragilis MMX 123 ATCC 25285; read-out: MIC.
For the next data set, the system named is E. coli MMX 1312. Kind of data set: Broth microdilution MIC (time-kill study). Format: cell-based, Escherichia coli. To be noted: Escherichia coli, MMX1312; E. coli MMX 1312; read-out: MIC.
Another data set relates to Clostridium spp. In words: Agar dilution MIC, 10 clinical isolates. Format: cell-based.
Data set [5] relates to E. coli ATCC 35218 (TEM-1 β-lactamase producer). In words: Broth microdilution MIC (time-kill study). In kind it is cell-based, Escherichia coli. To be noted: Escherichia coli, ATCC35218.
A further data set concerns S. agalactiae ATCC 13813. Kind of data set: Broth microdilution MIC (time-kill study). In kind it is cell-based, Streptococcus agalactiae. To be noted: Streptococcus agalactiae, ATCC13813.
In the next data set the test system is B. ovatus MMX 3503. In words: Broth microdilution MIC (time-kill study). Format: cell-based, Bacteroides ovatus. Particulars: Bacteroides ovatus, MMX3503; B. ovatus MMX 3504 (so in the source); read-out: MIC.
The test system of a further data set is E. coli ATCC 25922. In words: Broth microdilution MIC (time-kill study). In kind it is cell-based, Escherichia coli. To be noted: Escherichia coli, ATCC25922; E. coli ATCC 25922; read-out: MIC.
In a further data set the test system is B. vulgatus ATCC 8482. Kind of data set: Broth microdilution MIC (time-kill study). Format: cell-based, Bacteroides vulgatus. To be noted: Phocaeicola vulgatus, ATCC8482; B. vulgatus ATCC 8482; read-out: MIC.
Data set [6] relates to B. fragilis ATCC 25285. Particulars: B. fragilis MMX 123 ATCC 25285; cited from earlier work.
Another data set deals with SIBO Bacteria. Particulars: cited from earlier work.
The conditions of data set [7]: in vivo, po, 10 mg/kg; cited from earlier work.
Setting [8] is: S. agaloctiae ATCC 13813, selected on rifaximin 4X MIC, Colony A.
The mark [9] stands for this setting: S. agaloctiae ATCC 13813, selected on rifaximin 4X MIC, Colony B.
The mark [10] stands for this setting: S. agaloctiae ATCC 13813, selected on rifaximin 8X MIC, Colony A.
Setting [11] is: S. agaloctiae ATCC 13813, selected on rifaximin 8X MIC, Colony B.
Where [12] appears, read: S. agaloctiae ATCC 13813 Parent.
Where [13] appears, read: S. pneumoniae ATCC 49619, selected on rifaximin 4X MIC, Colony A.
[14] abbreviates: S. pneumoniae ATCC 49619, selected on rifaximin 4X MIC, Colony B.
Setting [15] is: S. pneumoniae ATCC 49619, selected on rifaximin 8X MIC, Colony A.
Setting [16] is: S. pneumoniae ATCC 49619, selected on rifaximin 8X MIC, Colony B.
Where [17] appears, read: S. pneumoniae ATCC 49619 Parent.
Where [18] appears, read: S. pyogenes ATCC 49399, selected on rifaximin 4X MIC, Colony A.
[19] abbreviates: S. pyogenes ATCC 49399, selected on rifaximin 4X MIC, Colony B.
Where [20] appears, read: S. pyogenes ATCC 49399, selected on rifaximin 8X MIC, Colony A.
Setting [21] is: S. pyogenes ATCC 49399, selected on rifaximin 8X MIC, Colony B.

≈ marks a conversion by molar mass, not a printed value.

As to `CCC[C@@H]1C[C@@H](C(=O)N[C@@H]([C@H]2O[C@H](SC)[C@H](O)[C@@H](O)[C@H]2O)[C@H](C)Cl)N(C)C1` [CLIN], the “MIC, CLSI QC range” value in data set [1] is given as “(0.03-0.12) μg/mL”. Moreover, the MIC in [2] (B. fragilis ATCC 25285, selected on rifaximin 4X MIC, Colony A) was found to be 0.5 µg/mL; in [2] (B. fragilis ATCC 25285, selected on rifaximin 4X MIC, Colony B) it was 0.5 µg/mL; in [2] (B. fragilis ATCC 25285, selected on rifaximin 8X MIC, Colony A), 0.5 µg/mL; in [2] (B. fragilis ATCC 25285, selected on rifaximin 8X MIC, Colony B), 0.5 µg/mL; in [2] (B. fragilis ATCC 25285 Parent), 0.25 µg/mL; in data set [2] (B. ovatus MMX 3503, selected on rifaximin 4X MIC, Colony A), 1 µg/mL. Further, the MIC in data set [2] (B. ovatus MMX 3503, selected on rifaximin 4X MIC, Colony B) turned out to be 1 µg/mL; in data set [2] (B. ovatus MMX 3503, selected on rifaximin 8X MIC, Colony A) it was 0.5 µg/mL; in data set [2] (B. ovatus MMX 3503, selected on rifaximin 8X MIC, Colony B), 1 µg/mL; in data set [2] (B. ovatus MMX 3503 Parent), 0.5 µg/mL; in data set [2] (B. vulgatus ATCC 8482, selected on ceftriaxone 4X MIC, Colony A) it was 0.25 µg/mL; in data set [2] (B. vulgatus ATCC 8482, selected on ceftriaxone 4X MIC, Colony B), 0.25 µg/mL. The MIC is 0.25 µg/mL in data set [2] (B. vulgatus ATCC 8482, selected on rifaximin 4X MIC, Colony A); 0.12 µg/mL in [2] (B. vulgatus ATCC 8482, selected on rifaximin 4X MIC, Colony B); 0.12 µg/mL in data set [2] (B. vulgatus ATCC 8482, selected on rifaximin 8X MIC, Colony A); 0.25 µg/mL in data set [2] (B. vulgatus ATCC 8482, selected on rifaximin 8X MIC, Colony B); 0.25 µg/mL in [2] (B. vulgatus ATCC 8482 Parent (Table 50)); 0.25 µg/mL in data set [2] (B. vulgatus ATCC 8482 Parent (Table 54)). The MIC in data set [3] (setting [8]) was 0.03 µg/mL (≈ 0.0706 µM); in data set [3] (setting [9]) it was 0.03 µg/mL (≈ 0.0706 µM); in data set [3] (setting [10]), 0.03 µg/mL (≈ 0.0706 µM); in data set [3] (setting [11]), 0.03 µg/mL (≈ 0.0706 µM); in data set [3] (setting [12]), 0.015 µg/mL (≈ 0.0353 µM); in [3] (setting [13]), 0.03 µg/mL (≈ 0.0706 µM). The MIC is 0.03 µg/mL (≈ 0.0706 µM) in [3] (setting [14]); 0.03 µg/mL (≈ 0.0706 µM) in [3] (setting [15]); 0.03 µg/mL (≈ 0.0706 µM) in [3] (setting [16]); 0.06 µg/mL (≈ 0.141 µM) in data set [3] (setting [17]); 0.03 µg/mL (≈ 0.0706 µM) in [3] (setting [18]); 0.03 µg/mL (≈ 0.0706 µM) in data set [3] (setting [19]). Further, the MIC in data set [3] (setting [20]), in [3] (setting [21]) and in data set [3] (S. pyogenes ATCC 49399 Parent) was 0.03 µg/mL (≈ 0.0706 µM) in each case.

Turning to `CC[C@H]1OC(=O)[C@H](C)[C@@H](O[C@H]2C[C@@](C)(OC)[C@@H](O)[C@H](C)O2)[C@H](C)[C@@H](O[C@@H]2O[C@H](C)C[C@H](N(C)C)[C@H]2O)[C@](C)(O)C[C@@H](C)CN(C)[C@H](C)[C@@H](O)[C@]1(C)O` [AZI], the “MIC, CLSI QC range” value in [1] is “(0.06-0.25) μg/mL”. For the same molecule, the MIC is 0.015 µg/mL (≈ 0.02 µM) in [3] (setting [8]); 0.015 µg/mL (≈ 0.02 µM) in [3] (setting [9]); 0.015 µg/mL (≈ 0.02 µM) in data set [3] (setting [10]); 0.015 µg/mL (≈ 0.02 µM) in [3] (setting [11]); 0.015 µg/mL (≈ 0.02 µM) in data set [3] (setting [12]); 0.03 µg/mL (≈ 0.0401 µM) in data set [3] (setting [13]). The MIC was determined as 0.03 µg/mL (≈ 0.0401 µM) in data set [3] (setting [14]); 0.03 µg/mL (≈ 0.0401 µM) in data set [3] (setting [15]); 0.03 µg/mL (≈ 0.0401 µM) in data set [3] (setting [16]); 0.06 µg/mL (≈ 0.0801 µM) in data set [3] (setting [17]); 0.06 µg/mL (≈ 0.0801 µM) in data set [3] (setting [18]); 0.06 µg/mL (≈ 0.0801 µM) in data set [3] (setting [19]). The MIC in data set [3] (setting [20]) came out at 0.06 µg/mL (≈ 0.0801 µM); in [3] (setting [21]) it was 0.06 µg/mL (≈ 0.0801 µM); in data set [3] (S. pyogenes ATCC 49399 Parent), 0.03 µg/mL (≈ 0.0401 µM).

For the molecule `Cc1ncc([N+](=O)[O-])n1CCO` [metronidazole, Metronidazole], the MIC in the data set on S. pyogenes ATCC 49399 was greater than 32 µg/mL; with S. pneumoniae ATCC 49619 it was greater than 32 µg/mL; in the data set on B. fragilis ATCC 25285 [4], 0.5 µg/mL (≈ 2.92 µM); with E. coli MMX 1312, greater than 32 µg/mL; in [5] it was greater than 32 µg/mL; with S. agalactiae ATCC 13813, greater than 32 µg/mL. For the same molecule, the MIC is 0.5 µg/mL (≈ 2.92 µM) in the data set with B. ovatus MMX 3503, greater than 32 µg/mL with E. coli ATCC 25922 and 0.5 µg/mL (≈ 2.92 µM) with B. vulgatus ATCC 8482. In addition, in the data set on Clostridium spp., the “relative activity among drugs tested” value is “meropenem and metronidazole had similar activity”. Besides, in the data set on B. fragilis ATCC 25285 [6], the “CLSI QC range (MIC)” value is given as “(0.25-2) μg/mL”.

Regarding `C[C@@H](O)[C@H]1C(=O)N2C(C(=O)O)=C(S[C@@H]3CN[C@H](C(=O)Nc4cccc(C(=O)O)c4)C3)[C@H](C)[C@H]12` [ertapenem], the “activity against SIBO organisms” value in the data set with SIBO Bacteria is listed as “active against SIBO organisms”. Besides, the “Rat oral exposure (Dose)” value in [7] is reported as 0.39 μM*h at 10.
